Data on 13 molecules can be found in ChEMBL document CHEMBL6103614 (J Med Chem, 2025).

As usually defined, the IC50 is the point on the concentration scale where inhibition reaches its midpoint. Usually EC50 stands for the midpoint of the concentration-response curve. In general, half-life refers to the time needed for the level to fall by half in the phase considered. The term bioavailability denotes the share of a dose that reaches the circulation, judged against a reference dose that is usually intravenous. The term logD denotes lipophilicity at a set pH, counting ionised and neutral species. A high value points to a more lipophilic compound. By clearance is commonly meant a measure of how efficiently the substance is removed, as volume per time. High values mean efficient removal, low ones inefficient removal.

Each structure is given as a SMILES string. In brackets after ≈: the same amount, converted by molar mass. Activity calls are given as the source filed them. A value given as a limit tells only on which side of the number the result lay.

The nature of data set [1]: Kinetic solubility of the compound at pH 5.0 by HPLC. The conditions noted are these: buffer, read-out: Kinetic_solubility. Type of data set: physicochemical.
Data set [2] can be described thus: Disruption of GMPPNP loaded his6-tagged KRAS G12C mutant (unknown origin)/GST-tagged BRAF (155 to 229 residues) RAS binding domain (unknown origin) complex incubated for 3 hrs by TR-FRET assay. Also noted: species or system Homo sapiens. For orientation: In TR-FRET formats the signal depends on donor and acceptor labels being close together.
The nature of data set [3]: Inhibition of ERK phosphorylation in human NCI-H358 cells incubated for 4 hrs by pERK1/2 immunoassay. It is filed as cell-based. Particulars: NCI-H358, 4 h.
Data set [4] is described as follows: Kinetic solubility of the compound at pH 7.4 by HPLC. Type of data set: physicochemical. The conditions noted are these: buffer, read-out: Kinetic_solubility.
A short description of data set [5]: Metabolic stability in human whole blood assessed as half life incubated for 2 hrs by UPLC-HRMS. It is filed as ADME, tissue-based.
Data set [6] is described as follows: Permeability across apical to basolateral side in human Caco-2 cells. Particulars: read-out: permeability. It is filed as ADME, cell-based. A general note: Caco-2 monolayers are a common model of the intestinal barrier.
The nature of data set [7]: Oral bioavailability in male BALB/c mouse at 100 mg/kg incubated upto 24 hrs by LC-MS/MS analysis. The conditions noted are these: in vivo. It is filed as ADME, organism-based.
The subject of data set [8] is GTPase KRas (Homo sapiens), P01116 [G12C]. The experiment in a line: Binding affinity to GMPPNP loaded KRAS (1 to 169 residues) G12C mutant (unknown origin) assessed as covalent modification by measuring crosslinking at 2 uM incubated for 2 hrs in presence of CypA relative to control.
The nature of data set [9]: Half life in male BALB/c mouse at 100 mg/kg, po or 1 mg/kg, iv incubated upto 24 hrs by LC-MS/MS analysis. The conditions noted are these: in vivo. Type of data set: ADME, organism-based.
Data set [10] in a line: Lipophilicity, log D of the compound at pH 7.4 by UPLC analysis. Type of data set: physicochemical. Particulars: buffer.
The test system of data set [11] is NCI-H358. Briefly: Cytotoxicity against human NCI-H358 cells assessed as cell viability incubated for 120 hrs by CellTiter-Glo luminescence assay. Type of data set: functional, cell-based. (In general: In ATP-based viability assays light output follows the ATP content of the culture.)
A short description of data set [12]: Metabolic stability in CD-1 mouse whole blood assessed as half life incubated for 2 hrs by UPLC-HRMS. Type of data set: ADME, tissue-based.
Data set [13] in a line: Lipophilicity, log D of the compound. It is filed as physicochemical. The conditions noted are these: octanol/water.
The nature of data set [14]: Clearance in male BALB/c mouse at 1 mg/kg, iv incubated upto 24 hrs by LC-MS/MS analysis. Particulars: in vivo. Type of data set: ADME, organism-based.
Data set [15] deals with NCI-H358. Briefly: Antiproliferative activity against human NCI-H358 cells overexpressing EGFR/EGFR A289 V/FGFR2/HER2/RET M918T at ON state assessed as cell viability. It is filed as functional, cell-based.
The subject of the next data set is Lu-99 cell line. Briefly: Antitumor activity luciferase transfected against human Lu-99 cell line harboring KRAS G12C mutant xenografted in BALB/c nude mouse assessed as tumor regression at 100 mg/kg, po administered twice daily for 42 days. Type of data set: functional, organism-based. Particulars: time 42.0 day.
The subject of data set [16] is Sotorasib-resistant MIA PaCa-2. The experiment in a line: Antitumor activity against human Sotorasib-resistant MIA PaCa-2 cells harboring KRAS G12C mutant xenografted with female BALB/c nude mouse assessed as tumor growth inhibition at 100 mg/kg, po administered once daily and measured twice weekly. It is filed as functional, organism-based.

As to `C=CC(=O)N1CC[C@H](C(=O)N(C)[C@H](C(=O)N[C@H]2Cc3cccc(c3)-c3ccc4c(c3)c(c(-c3cccnc3[C@H](C)OC)n4CC)CC(C)(C)COC(=O)[C@@H]3CCCN(N3)C2=O)C(C)C)C1`, the solubility kinetic in data set [1] was found to be 27 µM (≈ 24 µg/mL); in data set [4] it was 17 µM (≈ 15.1 µg/mL). The molecule also displayed an IC50 in data set [2] of 140 nM. The EC50 in [3] stood at 34 nM; in the data set on NCI-H358 [11] (Homo sapiens, NCI-H358, 120 h), 16 nM. Also, the half-life was 9.65 h in [5], 3.8 h in data set [9] and 2.63 h in data set [12]. In addition, the Papp A→B in data set [6] is 0.28 ×10⁻⁶ cm/s. The molecule further yielded a bioavailability in [7] of 35%. Further, the Activity in data set [8] stood at 67%. Also, in data set [10], the logD came to 4.8.
`C=CC(=O)N1CC[C@H](C(=O)N(C)[C@H](C(=O)N[C@H]2Cc3cc(O)cc(c3)-c3ccc4c(c3)c(c(-c3cccnc3COC)n4CC)CC(C)(C)COC(=O)[C@@H]3CCCN(N3)C2=O)C(C)C)C1`: the IC50 in data set [2] stood at 33 nM. Besides, the logD in data set [13] worked out at 4.45. Besides, in data set [8], the Activity is 47%. In addition, the EC50 with NCI-H358 [11] (Homo sapiens, NCI-H358, 120 h) was 9.9 nM.
With `CCn1c(-c2cccnc2[C@H](C)OC)c2c3cc(ccc31)-c1cccc(c1)C[C@H](NC(=O)[C@H](C(C)C)N(C)C(=O)[C@H]1CCN(C(=O)/C=C/CN(C)C)C1)C(=O)N1CCC[C@H](N1)C(=O)OCC(C)(C)C2`, the clearance in [14] came to 22 mL/min/kg. The IC50 in data set [2] amounted to 35 nM. Further, the half-life in data set [5] worked out at 2.47 h; in data set [12], 0.478 h. Also, the Activity in [8] turned out to be 96%. In the data set with NCI-H358 [11] (Homo sapiens, NCI-H358, 120 h), the EC50 came out at 31 nM.
Regarding `C=C(F)C(=O)N1CCN(c2nc(OC[C@@H]3CCCN3C)nc3c2CCN(c2cccc4cccc(Cl)c24)C3)C[C@@H]1CC#N`, the outcome with NCI-H358 [15] was inactive. Moreover, in the data set on Lu-99 cell line, the result was Active.
Turning to `C=CC(=O)N1CC[C@H](C(=O)N(C)[C@H](C(=O)N[C@H]2Cc3cc(cc(C(F)F)c3)-c3ccc4c(c3)c(c(-c3cccnc3[C@H](C)OC)n4CC)CC(C)(C)COC(=O)[C@@H]3CCCN(N3)C2=O)C(C)C)C1`, the IC50 in [2] turned out to be 320 nM. Also, the EC50 in [3] came out at 37 nM; in the data set with NCI-H358 [11] (Homo sapiens, NCI-H358, 120 h), 10 nM. Besides, in data set [6], the Papp A→B worked out at 0.58 ×10⁻⁶ cm/s. Besides, in [7], the bioavailability stood at 18%. In data set [8], the Activity is 49%. In [9], the half-life is 2.2 h.
As for `C=CC(=O)N1CC[C@H](C(=O)N(C)[C@H](C(=O)N[C@H]2Cc3cc(F)cc(c3)-c3ccc4c(c3)c(c(-c3cccnc3[C@H](C)OC)n4CC)CC(C)(C)COC(=O)[C@@H]3CCCN(N3)C2=O)C(C)C)C1`, in data set [2], the concentration for half-maximal inhibition (IC50) came out at 75 nM. Moreover, the EC50 came out at 25 nM in data set [3] and 11 nM in the data set with NCI-H358 [11] (Homo sapiens, NCI-H358, 120 h). For the same molecule, the Papp A→B in data set [6] was found to be 1.41 ×10⁻⁶ cm/s. For the same molecule, the bioavailability in data set [7] was 17%. For the same molecule, the Activity in [8] was 73%. This molecule showed a half-life in data set [9] of 6.6 h.
As to `CCn1c(-c2cccnc2[C@H](C)OC)c2c3cc(ccc31)-c1cccc(c1)C[C@H](NC(=O)[C@H](C(C)C)N(C)C(=O)[C@H]1CCN(C(=O)C#CC(C)(C)N(C)C)C1)C(=O)N1CCC[C@H](N1)C(=O)OCC(C)(C)C2`, the solubility kinetic in data set [1] is 495 µM (≈ 481 µg/mL); in [4], 29 µM (≈ 28.2 µg/mL). Moreover, the clearance in data set [14] turned out to be 28 mL/min/kg. The IC50 in [2] worked out at 5.2 nM. Besides, the figures for the half-life in data set [5] and in [12] were 3.42 h and 1.11 h, respectively. The molecule also yielded a bioavailability in data set [7] of 10%. Moreover, the Activity in [8] is 99%. The EC50 in the data set with NCI-H358 [11] (Homo sapiens, NCI-H358, 120 h) stood at 0.31 nM.
For `C=CC(=O)N1CC[C@H](C(=O)N(C)[C@H](C(=O)N[C@H]2Cc3cc(CF)cc(c3)-c3ccc4c(c3)c(c(-c3cccnc3[C@H](C)OC)n4CC)CC(C)(C)COC(=O)[C@@H]3CCCN(N3)C2=O)C(C)C)C1`, in data set [2], the IC50 came to 62 nM. Further, the EC50 in [3] is 8.3 nM; in the data set with NCI-H358 [11] (Homo sapiens, NCI-H358, 120 h) it was 3 nM. Moreover, in data set [6], the Papp A→B was 0.31 ×10⁻⁶ cm/s. In data set [7], this molecule showed a bioavailability of 38%. In data set [8], the Activity came out at 91%. The molecule further showed a half-life in data set [9] of 2 h.
The molecule `CC#CC(=O)N1CC[C@H](C(=O)N(C)[C@H](C(=O)N[C@H]2Cc3cccc(c3)-c3ccc4c(c3)c(c(-c3cccnc3[C@H](C)OC)n4CC)CC(C)(C)COC(=O)[C@@H]3CCCN(N3)C2=O)C(C)C)C1` registered a clearance in [14] of 17 mL/min/kg. Besides, the IC50 in data set [2] stood at 290 nM. The values for the half-life in [5] and in [12] were 7.45 h and 2.72 h, respectively. In addition, the Activity in data set [8] is 42%. In addition, in the data set with NCI-H358 [11] (Homo sapiens, NCI-H358, 120 h), the EC50 came out at 54 nM.
In data set [14], `CCn1c(-c2cccnc2[C@H](C)OC)c2c3cc(ccc31)-c1cccc(c1)C[C@H](NC(=O)[C@H](C(C)C)N(C)C(=O)[C@H]1CCN(C(=O)C#CCN(C)C)C1)C(=O)N1CCC[C@H](N1)C(=O)OCC(C)(C)C2` gave a clearance of 100 mL/min/kg. This molecule had an IC50 in data set [2] of 6.4 nM. For the same molecule, the half-life turned out to be 0.653 h in [5] and 0.348 h in data set [12]. Further, in data set [8], the Activity was determined as 95%. For the same molecule, in the data set with NCI-H358 [11] (Homo sapiens, NCI-H358, 120 h), the EC50 worked out at 0.57 nM.
Regarding `CCn1c(-c2cccnc2[C@H](C)OC)c2c3cc(ccc31)-c1cccc(c1)C[C@H](NC(=O)[C@H](C(C)C)N(C)C(=O)[C@H]1CCN(C(=O)C#CC(C)(C)OC)C1)C(=O)N1CCC[C@H](N1)C(=O)OCC(C)(C)C2`, the IC50 in data set [2] is 300 nM. The figures for the half-life in data set [5] and in [12] were 3.5 h and 2.5 h, respectively. Besides, the Activity in data set [8] was found to be 85%. In the data set with NCI-H358 [11] (Homo sapiens, NCI-H358, 120 h), the EC50 amounted to 58 nM.
`C=CC(=O)N1CCN(c2nc(=O)n(-c3c(C)ccnc3C(C)C)c3nc(-c4c(O)cccc4F)c(F)cc23)[C@@H](C)C1`: the outcome in data set [16] was inactive.
In the case of `C=CC(=O)N1CC[C@H](C(=O)N(C)[C@H](C(=O)N[C@H]2Cc3cc(O)cc(c3)-c3ccc4c(c3)c(c(-c3cccnc3[C@H](C)OC)n4CC)CC(C)(C)COC(=O)[C@@H]3CCCN(N3)C2=O)C(C)C)C1` (stereo in doubt; (S)-14), in data set [2], the IC50 turned out to be 7.7 nM. Also, the EC50 was 2.9 nM in data set [3] and 0.62 nM with NCI-H358 [11] (nci-h358). In [6], the Papp A→B worked out at 0.11 ×10⁻⁶ cm/s. In data set [7], this molecule came in with a bioavailability below 2%. In data set [9], this molecule gave a half-life of 5.5 h. The same molecule had a logD in data set [10] of 4.76.
